In the experiment the target is T1, human PD-1 (Jurkat-PD-1 cells) / PE-labeled human PD-L1-Ig (Homo sapiens, UniProt Q15116).
T1 construct: expressed in transfected cells; host or cells: Jurkat cell line over-expressing human PD-1
Kind of experiment: Jurkat-PD-1 Cell Binding High-Content Screening Assay (CBA); Jurkat hPD1-PDL1 assay. The following applies: Jurkat cell line over-expressing human PD-1; PE-labeled PD-L1-Ig 20 nM final; compound incubated 2 hours at 37° C.; read-out: Jurkat HPD1-PDL1 IC50. The method, boiled down:
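Read-out is high-content imaging of PE fluorescence on PD-1-over-expressing Jurkat cells. Cells are first exposed to compound for 2 hours at 37° C in serum-containing DMEM, after which PE-labeled PD-L1-Ig is added at 20 nM final.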

The source of these data is patent US20240360178A1, “MACROCYCLIC IMMUNOMODULATORS” (Bristol-Myers Squibb Company, priority 2021, published 2024).

Positions of bridges follow the written chain, without caps; N, C: chain ends. Non-standard residues stand in square brackets, D forms with d. Residues, ends and D or L forms follow the SMILES beside them. *: point of attachment. Phe(3,4,5-F3) = N[C@@H](Cc1cc(F)c(F)c(F)c1)C(=O)O; Phe(4-COOH) = N[C@@H](Cc1ccc(C(=O)O)cc1)C(=O)O; Bip = N[C@@H](Cc1ccc(-c2ccccc2)cc1)C(=O)O; Phe(3-Me) = Cc1cccc(C[C@H](N)C(=O)O)c1; NMeY = CN[C@@H](Cc1ccc(O)cc1)C(=O)O; Val(3-OH) = CC(C)(O)[C@H](N)C(=O)O; NMeF = CN[C@@H](Cc1ccccc1)C(=O)O; 3Pal = N[C@@H](Cc1cccnc1)C(=O)O; 4Pal = N[C@@H](Cc1ccncc1)C(=O)O; Cha = N[C@@H](CC1CCCCC1)C(=O)O; Cit = NC(=O)NCCC[C@H](N)C(=O)O; dPip = O=C(O)[C@H]1CCCCN1; Carboxymethyl = O=C(O)C*; NMeA = CN[C@@H](C)C(=O)O; Nle = CCCC[C@H](N)C(=O)O; Orn = NCCC[C@H](N)C(=O)O; Dab = NCC[C@H](N)C(=O)O; Nva = CCC[C@H](N)C(=O)O; Dap = NC[C@H](N)C(=O)O; NBuGly = CCCCNCC(=O)O; Sar = CNCC(=O)O

T1 sequence (Q15116 25-288): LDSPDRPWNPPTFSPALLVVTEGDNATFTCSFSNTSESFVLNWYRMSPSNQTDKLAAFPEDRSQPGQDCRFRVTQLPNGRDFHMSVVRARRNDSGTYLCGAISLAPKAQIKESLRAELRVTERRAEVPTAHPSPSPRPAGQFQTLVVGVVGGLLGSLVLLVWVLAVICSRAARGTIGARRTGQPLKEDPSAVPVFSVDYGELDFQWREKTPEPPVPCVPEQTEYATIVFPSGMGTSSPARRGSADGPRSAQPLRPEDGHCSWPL

On to `CC(C)C[C@@H]1NC(=O)[C@H](CCN)NC(=O)[C@H](Cc2ccccc2)N(C)C(=O)[C@H](C)N(C)C(=O)[C@H](CCC(=O)O)NC(=O)[C@H](Cc2ccc(-c3ccccc3)cc2)NC(=O)[C@H](C(C)C)NC(=O)[C@H](Cc2c[nH]c3ccccc23)NC(=O)[C@H](CC(=O)O)NC(=O)[C@H](Cc2ccc(O)cc2)NC(=O)[C@H](CC(N)=O)NC(=O)CSC[C@@H](C(=O)N[C@@H](C)C(N)=O)NC(=O)[C@H](CCCN)NC(=O)[C@H](C(C)C)NC1=O` [Example 1380] ({CH2CO}-NYDWV[Bip]E[NMeA][NMeF][Dab]LV[Orn]CA-NH2; thioether N-14), for which the IC50 (commonly the point on the concentration scale where inhibition reaches its midpoint) was determined as 70 nM. Consider `CC(C)C[C@@H]1NC(=O)[C@H](Cc2c[nH]c3ccccc23)NC(=O)[C@H](CC(=O)O)NC(=O)[C@H](Cc2ccc(O)cc2)NC(=O)[C@H](Cc2ccccc2)NC(=O)CSC[C@@H](C(=O)N[C@@H](C)C(N)=O)NC(=O)[C@H](CO)NC(=O)[C@H](C(C)C)NC(=O)[C@H](CC2CCCCC2)NC(=O)[C@H](CC(N)=O)NC(=O)CN(C)C(=O)[C@H](C)N(C)C(=O)[C@H](C(C)C)NC(=O)[C@H](Cc2ccc(-c3ccccc3)cc2)NC1=O` [Example 1093] ({CH2CO}-FYDWL[Bip]V[NMeA][Sar]N[Cha]VSCA-NH2; thioether N-14), for which the IC50 worked out at 270 nM.

For the compound `CCC[C@@H]1NC(=O)[C@H](Cc2c[nH]c3ccccc23)NC(=O)[C@H](CC(=O)O)NC(=O)[C@H](Cc2ccc(O)cc2)NC(=O)[C@H](Cc2ccccc2)NC(=O)CSC[C@@H](C(=O)NCC(N)=O)NC(=O)[C@H](CO)NC(=O)[C@H](C(C)C)NC(=O)[C@H](CC(C)C)NC(=O)[C@H](CCCNC(=N)N)NC(=O)[C@H](Cc2ccccc2)N(C)C(=O)[C@H](C)N(C)C(=O)[C@H](CCCNC(=N)N)NC(=O)[C@H](Cc2ccc(-c3ccccc3)cc2)NC1=O` [Example 1335] ({CH2CO}-FYDW[Nva][Bip]R[NMeA][NMeF]RLVSCG-NH2; thioether N-14), the IC50 amounted to 140 nM. For the compound `CC(C)C[C@@H]1NC(=O)[C@H](CCCNC(=N)N)NC(=O)[C@H](Cc2ccccc2)N(C)C(=O)[C@H](C)N(C)C(=O)[C@H](CCC(=O)O)NC(=O)[C@H](Cc2ccc(-c3ccccc3)cc2)NC(=O)[C@H](C(C)C)NC(=O)[C@H](Cc2c[nH]c3ccccc23)NC(=O)[C@H](CC(=O)O)NC(=O)[C@H](Cc2ccc(O)cc2)NC(=O)[C@H](Cc2ccccc2)NC(=O)CSC[C@@H](C(=O)N[C@@H](CCC(=O)O)C(N)=O)NC(=O)[C@H]([C@@H](C)O)NC(=O)[C@H](C(C)C)NC1=O` [Example 1351] ({CH2CO}-FYDWV[Bip]E[NMeA][NMeF]RLVTCE-NH2; thioether N-14), the half-inhibitory concentration (IC50) was 380 nM.

Consider `CC(C)C[C@@H]1NC(=O)[C@H](Cc2c[nH]c3ccccc23)NC(=O)[C@H](CC(=O)O)NC(=O)[C@H](Cc2ccc(O)cc2)NC(=O)[C@H](CC(N)=O)NC(=O)CSC[C@@H](C(=O)N[C@@H](C)C(N)=O)NC(=O)[C@H]([C@@H](C)O)NC(=O)[C@H](C(C)C)NC(=O)[C@H](CC(C)C)NC(=O)[C@H](CCN)NC(=O)[C@H]2CCCN2C(=O)[C@H](CCCN)NC(=O)[C@H](C(C)C)NC(=O)[C@H](Cc2ccc(-c3ccccc3)cc2)NC1=O` [Example 1402] ({CH2CO}-NYDWL[Bip]V[Orn][dP][Dab]LVTCA-NH2; thioether N-14), for which the IC50 amounted to 260 nM. For the compound `CC(C)C[C@@H]1NC(=O)[C@H](CCCNC(=N)N)NC(=O)[C@H](Cc2ccccc2)N(C)C(=O)[C@H](C)N(C)C(=O)[C@H](CCCNC(=N)N)NC(=O)[C@H](Cc2ccc(-c3ccccc3)cc2)NC(=O)[C@H](C(C)C)NC(=O)[C@H](Cc2c[nH]c3ccccc23)NC(=O)[C@H](CC(=O)O)NC(=O)[C@H](Cc2ccc(C(=O)O)cc2)NC(=O)[C@H](CCC(N)=O)NC(=O)CSC[C@@H](C(=O)NCC(N)=O)NC(=O)[C@H](CO)NC(=O)[C@H](C(C)C)NC1=O` [Example 1297] ({CH2CO}-Q[Phe(4-COOH)]DWV[Bip]R[NMeA][NMeF]RLVSCG-NH2; thioether N-14), the IC50 turned out to be 420 nM.

With `CCCCN1CC(=O)N[C@@H](CCN)C(=O)N[C@@H](CC2CCCCC2)C(=O)N[C@@H](C(C)C)C(=O)N[C@@H](CO)C(=O)N[C@H](C(=O)N[C@@H](CCN)C(N)=O)CSCC(=O)N[C@@H]([C@@H](C)O)C(=O)N[C@@H](Cc2ccc(OCC(=O)O)cc2)C(=O)N[C@@H](CC(=O)O)C(=O)N[C@@H](Cc2cccc(C)c2)C(=O)N[C@@H](Cc2ccc(OCC(=O)O)cc2)C(=O)N[C@@H](Cc2ccc(-c3ccccc3)cc2)C(=O)N[C@@H](Cc2ccc(OCC(=O)O)cc2)C(=O)N(C)[C@@H](C)C1=O` [Example 1186] ({CH2CO}-TY(Carboxymethyl)D[Phe(3-Me)]Y(Carboxymethyl)[Bip]Y(Carboxymethyl)[NMeA][NBuGly][Dab][Cha]VSC[Dab]-NH2; thioether N-14), the IC50 worked out at 380 nM. Regarding `CC(C)C[C@@H]1NC(=O)[C@H](Cc2c[nH]c3ccccc23)NC(=O)[C@H](CC(=O)O)NC(=O)[C@H](Cc2ccc(C(=O)O)cc2)NC(=O)[C@H](CN)NC(=O)CSC[C@@H](C(=O)N[C@@H](C)C(N)=O)NC(=O)[C@H](CO)NC(=O)[C@H](C(C)C)NC(=O)[C@H](CC(C)C)NC(=O)[C@H](CC(N)=O)NC(=O)[C@H]2CCCN2C(=O)[C@H](C)N(C)C(=O)[C@H](C(C)C)NC(=O)[C@H](Cc2ccc(-c3ccccc3)cc2)NC1=O` [Example 1390] ({CH2CO}-[Dap][Phe(4-COOH)]DWL[Bip]V[NMeA][dP]NLVSCA-NH2; thioether N-14), the IC50 stood at 20 nM.

Regarding `CCCC[C@@H]1NC(=O)[C@H](CCCCN)NC(=O)[C@H](Cc2ccccc2)N(C)C(=O)[C@H](CC(=O)O)NC(=O)[C@H](CCCNC(=N)N)NC(=O)[C@H](Cc2ccc(-c3ccccc3)cc2)NC(=O)[C@H](C(C)C)NC(=O)[C@H](Cc2c[nH]c3ccccc23)NC(=O)[C@H](CC(=O)O)NC(=O)[C@H](Cc2ccc(O)cc2)NC(=O)[C@H](Cc2ccccc2)NC(=O)CSC[C@@H](C(=O)NCC(N)=O)NC(=O)[C@H](CCCNC(=N)N)NC(=O)[C@H](C(C)C)NC1=O` [Example 1192] ({CH2CO}-FYDWV[Bip]RD[NMeF]K[Nle]VRCG-NH2; thioether N-14), the IC50 worked out at 920 nM. With `CC(C)C[C@@H]1NC(=O)[C@H](Cc2c[nH]c3ccccc23)NC(=O)[C@H](CC(=O)O)NC(=O)[C@H](Cc2ccc(OCC(=O)O)cc2)NC(=O)[C@H]([C@@H](C)O)NC(=O)CSC[C@@H](C(=O)N[C@@H](CCN)C(N)=O)NC(=O)[C@H](CO)NC(=O)[C@H](C(C)(C)O)NC(=O)[C@H](CC2CCCCC2)NC(=O)[C@H](CCN)NC(=O)[C@H]2CCCCN2C(=O)[C@H]2CCCN2C(=O)[C@H](C(C)C)NC(=O)[C@H](Cc2ccc(-c3ccccc3)cc2)NC1=O` [Example 1188] ({CH2CO}-TY(Carboxymethyl)DWL[Bip]V[dP][dPip][Dab][Cha][Val(3-OH)]SC[Dab]-NH2; thioether N-14), the IC50 worked out at 50 nM. As to `CC(C)C[C@@H]1NC(=O)[C@H](Cc2c[nH]c3ccccc23)NC(=O)[C@H](CC(=O)O)NC(=O)[C@H](Cc2ccc(O)cc2)NC(=O)[C@H](Cc2ccccc2)NC(=O)CSC[C@@H](C(=O)N[C@@H](C)C(N)=O)NC(=O)[C@H]([C@@H](C)O)NC(=O)[C@H](C(C)C)NC(=O)[C@H](CC(C)C)NC(=O)[C@H](CCN)NC(=O)[C@H]2CCCN2C(=O)[C@H](CCCN)NC(=O)[C@H](C(C)C)NC(=O)[C@H](Cc2ccc(-c3ccccc3)cc2)NC1=O` [Example 1422] ({CH2CO}-FYDWL[Bip]V[Orn][dP][Dab]LVTCA-NH2; thioether N-14), the IC50 was determined as 140 nM. For `CC(C)C[C@@H]1NC(=O)[C@H](Cc2c[nH]c3ccccc23)NC(=O)[C@H](CC(=O)O)NC(=O)[C@H](Cc2ccc(OCC(=O)O)cc2)NC(=O)[C@H](Cc2ccncc2)NC(=O)CSC[C@@H](C(=O)N[C@@H](CCN)C(N)=O)NC(=O)[C@H](CO)NC(=O)[C@H](C(C)(C)O)NC(=O)[C@H](CC2CCCCC2)NC(=O)[C@H](CCN)NC(=O)[C@H]2CCCN2C(=O)[C@H](C)N(C)C(=O)[C@H](CCCNC(N)=O)NC(=O)[C@H](Cc2ccc(-c3ccccc3)cc2)NC1=O` [Example 1181] ({CH2CO}-[4Pal]Y(Carboxymethyl)DWL[Bip][Cit][NMeA][dP][Dab][Cha][Val(3-OH)]SC[Dab]-NH2; thioether N-14), the IC50 was 100 nM.

On to `CC(C)C[C@@H]1NC(=O)[C@H](Cc2c[nH]c3ccccc23)NC(=O)[C@H](CC(=O)O)NC(=O)[C@H](Cc2ccc(C(=O)O)cc2)NC(=O)[C@H](Cc2cccnc2)NC(=O)CSC[C@@H](C(=O)N[C@@H](C)C(N)=O)NC(=O)[C@H](CO)NC(=O)[C@H](C(C)C)NC(=O)[C@H](CC(C)C)NC(=O)[C@H](CC(N)=O)NC(=O)[C@H]2CCCN2C(=O)[C@H](C)N(C)C(=O)[C@H](C(C)C)NC(=O)[C@H](Cc2ccc(-c3ccccc3)cc2)NC1=O` [Example 1025] ({CH2CO}-[3Pal][Phe(4-COOH)]DWL[Bip]V[NMeA][dP]NLVSCA-NH2; thioether N-14), for which the IC50 turned out to be 40 nM. As for `CC(C)[C@@H]1NC(=O)[C@H](Cc2c[nH]c3ccccc23)NC(=O)[C@H](CC(=O)O)NC(=O)[C@H](Cc2ccc(C(=O)O)cc2)NC(=O)[C@H](Cc2ccc(OCC(=O)O)cc2)NC(=O)CSC[C@@H](C(=O)N[C@@H](C)C(N)=O)NC(=O)[C@H]([C@@H](C)O)NC(=O)[C@H](C(C)C)NC(=O)[C@H](CC2CCCCC2)NC(=O)[C@H](CCN)NC(=O)[C@H](Cc2ccc(O)cc2)N(C)C(=O)[C@H](CCCN)NC(=O)[C@H](CCC(=O)O)NC(=O)[C@H](Cc2ccc(-c3ccccc3)cc2)NC1=O` [Example 1433] ({CH2CO}-Y(Carboxymethyl)[Phe(4-COOH)]DWV[Bip]E[Orn][NMeY][Dab][Cha]VTCA-NH2; thioether N-14), the IC50 was 260 nM. As for `CC(C)C[C@@H]1NC(=O)[C@H](Cc2c[nH]c3ccccc23)NC(=O)[C@H](CC(=O)O)NC(=O)[C@H](Cc2cc(F)c(F)c(F)c2)NC(=O)[C@H](Cc2ccccc2)NC(=O)CSC[C@@H](C(=O)N[C@@H](C)C(N)=O)NC(=O)[C@H](CO)NC(=O)[C@H](C(C)C)NC(=O)[C@H](CC(C)C)NC(=O)[C@H](CC(N)=O)NC(=O)CN(C)C(=O)[C@H](C)N(C)C(=O)[C@H](C(C)C)NC(=O)[C@H](Cc2ccc(-c3ccccc3)cc2)NC1=O` [Example 1146] ({CH2CO}-F[Phe(3,4,5-F3)]DWL[Bip]V[NMeA][Sar]NLVSCA-NH2; thioether N-14), the IC50 turned out to be 650 nM.
